Assay results reported in patent US9211310B2, “Use of a Chinese medicine composition in preparing medicaments for treating secondary prevention of myocardial infarction” (TASLY PHARMACEUTICAL GROUP CO., LTD, priority 2010, dated 2015).

Test system: patients after acute myocardial infarction
Assay: TCM symptom score, total and single (chest pain, chest tightness, short breath, fatigue, palpitation, spontaneous perspiration, pale complexion), same clinical trial
Type: in vivo, human
Design: total score of TCM symptom, Mean / total score of TCM symptom, Min / total score of TCM symptom, Max / total score of TCM symptom, Md / change of total score of TCM symptom, Mean / change of total score of TCM symptom, Max / change of total score of TCM symptom, Md: scale not given here
Details: PP
Text: 3508 patients who were in accordance with the diagnostic standards of AMI for 28 days to 2 years and differentiated as Qi deficiency and blood stagnation syndrome by TCM were studied. 0.5 g Chinese medicine composition prepared by the method of EXAMPLE 1 (Coded as QSYQ) was administrated half an hour after meal, 3 times per day.
They included the overall survival time, angina pectoris score, TCM symptom score and life quality score, where angina pectoris score, TCM symptom score and life quality score were evaluated at randomization, in 1st, 3rd, 6th, 9th, 12th month after treatment and 18th month after follow-up.
The analysis method referred to the angina pectoris score.

[1] = 1 month after treatment-baseline
[2] = 3 month after treatment-baseline
[3] = 3 months after treatment-baseline

Question: How did the “change of palpitation −3, number of patients” value [1] turn out when `CC(=O)Oc1ccccc1C(=O)O` [Control group, aspirine] was run?
Answer: 0

Question: What about the “change of palpitation −3, percent of patients” value [1] of the same molecule?
Answer: (0.00%)

Question: What about the “change of short breath 0, % of patients” value [1] of the same molecule?
Answer: (77.53%)

Question: What about the “change of short breath 0, number of patients” value [1] of the same molecule?
Answer: 1132

Question: And the “change of short breath 2, % of patients” value [1]?
Answer: (14.59%)

Question: And the “change of short breath 2, number of patients” value [1]?
Answer: 213

Question: What about the “change of short breath 4, % of patients” value [1] of the same molecule?
Answer: (1.71%)

Question: What about the “change of short breath 4, number of patients” value [1] of the same molecule?
Answer: 25

Question: What about the “change of short breath 6, % of patients” value [1] of the same molecule?
Answer: (0.41%)

Question: And the “change of short breath 6, number of patients” value [1]?
Answer: 6

Question: What about the “change of short breath −2, % of patients” value [1] of the same molecule?
Answer: (5.27%)

Question: And the “change of short breath −2, number of patients” value [1]?
Answer: 77

Question: And the “change of short breath −4, % of patients” value [1]?
Answer: (0.48%)

Question: What about the “change of short breath −4, number of patients” value [1] of the same molecule?
Answer: 7

Question: And the “change of short breath −6, % of patients” value [1]?
Answer: (0.00%)

Question: What about the “change of short breath −6, number of patients” value [1] of the same molecule?
Answer: 0

Question: And the “change of spontaneous perspiration 0, number of patients” value [1]?
Answer: 1068

Question: And the “change of spontaneous perspiration 0, percent of patients” value [1]?
Answer: (73.15%)

Question: And the “change of spontaneous perspiration 1, number of patients” value [1]?
Answer: 238

Question: And the “change of spontaneous perspiration 1, percent of patients” value [1]?
Answer: (16.30%)

Question: And the “change of spontaneous perspiration 2, number of patients” value [1]?
Answer: 48

Question: And the “change of spontaneous perspiration 2, percent of patients” value [1]?
Answer: (3.29%)

Question: And the “change of spontaneous perspiration 3, number of patients” value [1]?
Answer: 12

Question: And the “change of spontaneous perspiration 3, percent of patients” value [1]?
Answer: (0.82%)

Question: What about the “change of spontaneous perspiration −1, number of patients” value [1] of the same molecule?
Answer: 77

Question: What about the “change of spontaneous perspiration −1, percent of patients” value [1] of the same molecule?
Answer: (5.27%)

Question: What about the “change of spontaneous perspiration −2, number of patients” value [1] of the same molecule?
Answer: 14

Question: And the “change of spontaneous perspiration −2, percent of patients” value [1]?
Answer: (0.96%)

Question: And the “change of spontaneous perspiration −3, number of patients” value [1]?
Answer: 3

Question: And the “change of spontaneous perspiration −3, percent of patients” value [1]?
Answer: (0.21%)

Question: What about the “change of total score of TCM symptom, Max” value [1] of the same molecule?
Answer: 24.00

Question: And the “change of total score of TCM symptom, Md” value [1]?
Answer: −1.00

Question: And the “change of total score of TCM symptom, Mean” value [1]?
Answer: −2.00

Question: And the “change of total score of TCM symptom, Min” value [1]?
Answer: −28.00

Question: What about the “change of total score of TCM symptom, Max” value [2] of the same molecule?
Answer: 19.00

Question: And the “change of total score of TCM symptom, Md” value [2]?
Answer: −2.00

Question: What about the “change of total score of TCM symptom, Mean” value [2] of the same molecule?
Answer: −3.05

Question: What about the “change of total score of TCM symptom, Min” value [2] of the same molecule?
Answer: −28.00

Question: And the “distribution of total score of TCM symptom: Medium, number of patients” value (3 months after treatment)?
Answer: 489

Question: What about the “distribution of total score of TCM symptom: Medium, percentage of patients” value (3 months after treatment) of the same molecule?
Answer: (33.79%)

Question: What about the “distribution of total score of TCM symptom: Mild, number of patients” value (3 months after treatment) of the same molecule?
Answer: 946

Question: What about the “distribution of total score of TCM symptom: Mild, percentage of patients” value (3 months after treatment) of the same molecule?
Answer: (65.38%)

Question: And the “distribution of total score of TCM symptom: Severe, number of patients” value (3 months after treatment)?
Answer: 12

Question: And the “distribution of total score of TCM symptom: Severe, percentage of patients” value (3 months after treatment)?
Answer: (0.83%)

Question: What about the “fatigue score 0, % of patients” value (3 months after treatment) of the same molecule?
Answer: (28.28%)

Question: And the “fatigue score 0, number of patients” value (3 months after treatment)?
Answer: 409

Question: What about the “fatigue score 2, % of patients” value (3 months after treatment) of the same molecule?
Answer: (59.75%)

Question: And the “fatigue score 2, number of patients” value (3 months after treatment)?
Answer: 864

Question: And the “fatigue score 4, % of patients” value (3 months after treatment)?
Answer: (11.41%)

Question: What about the “fatigue score 4, number of patients” value (3 months after treatment) of the same molecule?
Answer: 165

Question: And the “fatigue score 6, % of patients” value (3 months after treatment)?
Answer: (0.55%)

Question: What about the “fatigue score 6, number of patients” value (3 months after treatment) of the same molecule?
Answer: 8

Question: What about the “pale complexion score 0, number of patients” value (3 months after treatment) of the same molecule?
Answer: 693

Question: What about the “pale complexion score 0, percent of patients” value (3 months after treatment) of the same molecule?
Answer: (47.89%)

Question: And the “pale complexion score 1, number of patients” value (3 months after treatment)?
Answer: 566

Question: And the “pale complexion score 1, percent of patients” value (3 months after treatment)?
Answer: (39.12%)

Question: What about the “pale complexion score 2, number of patients” value (3 months after treatment) of the same molecule?
Answer: 172

Question: What about the “pale complexion score 2, percent of patients” value (3 months after treatment) of the same molecule?
Answer: (11.89%)

Question: And the “pale complexion score 3, number of patients” value (3 months after treatment)?
Answer: 16

Question: What about the “pale complexion score 3, percent of patients” value (3 months after treatment) of the same molecule?
Answer: (1.11%)

Question: What about the “palpitation score 0, number of patients” value (3 months after treatment) of the same molecule?
Answer: 403

Question: And the “palpitation score 0, percent of patients” value (3 months after treatment)?
Answer: (27.87%)

Question: What about the “palpitation score 2, number of patients” value (3 months after treatment) of the same molecule?
Answer: 759

Question: What about the “palpitation score 2, percent of patients” value (3 months after treatment) of the same molecule?
Answer: (52.49%)

Question: And the “palpitation score 4, number of patients” value (3 months after treatment)?
Answer: 261

Question: What about the “palpitation score 4, percent of patients” value (3 months after treatment) of the same molecule?
Answer: (18.05%)

Question: What about the “palpitation score 6, number of patients” value (3 months after treatment) of the same molecule?
Answer: 23

Question: And the “palpitation score 6, percent of patients” value (3 months after treatment)?
Answer: (1.59%)

Question: And the “short breath score 0, % of patients” value (3 months after treatment)?
Answer: (21.44%)

Question: What about the “short breath score 0, number of patients” value (3 months after treatment) of the same molecule?
Answer: 310

Question: And the “short breath score 3, % of patients” value (3 months after treatment)?
Answer: (59.13%)

Question: What about the “short breath score 3, number of patients” value (3 months after treatment) of the same molecule?
Answer: 855

Question: And the “short breath score 6, % of patients” value (3 months after treatment)?
Answer: (18.74%)

Question: And the “short breath score 6, number of patients” value (3 months after treatment)?
Answer: 271

Question: And the “short breath score 9, % of patients” value (3 months after treatment)?
Answer: (0.69%)

Question: And the “short breath score 9, number of patients” value (3 months after treatment)?
Answer: 10

Question: And the “spontaneous perspiration score 0, number of patients” value (3 months after treatment)?
Answer: 563

Question: What about the “spontaneous perspiration score 0, percent of patients” value (3 months after treatment) of the same molecule?
Answer: (38.93%)

Question: And the “spontaneous perspiration score 1, number of patients” value (3 months after treatment)?
Answer: 709

Question: And the “spontaneous perspiration score 1, percent of patients” value (3 months after treatment)?
Answer: (49.03%)

Question: And the “spontaneous perspiration score 2, number of patients” value (3 months after treatment)?
Answer: 167

Question: What about the “spontaneous perspiration score 3, number of patients” value (3 months after treatment) of the same molecule?
Answer: 7

Question: What about the “spontaneous perspiration score 3, percent of patients” value (3 months after treatment) of the same molecule?
Answer: (0.48%)

Question: And the “total score of TCM symptom, Max” value (3 months after treatment)?
Answer: 33.00

Question: And the “total score of TCM symptom, Md” value (3 months after treatment)?
Answer: 10.00

Question: What about the “total score of TCM symptom, Mean” value (3 months after treatment) of the same molecule?
Answer: 10.88

Question: What about the “total score of TCM symptom, Min” value (3 months after treatment) of the same molecule?
Answer: 0.00

Question: And the “change of fatigue 0, % of patients” value [3]?
Answer: (63.96%)

Question: And the “change of fatigue 0, number of patients” value [3]?
Answer: 923

Question: What about the “change of fatigue 2, % of patients” value [3] of the same molecule?
Answer: (25.50%)

Question: And the “change of fatigue 2, number of patients” value [3]?
Answer: 368

Question: And the “change of fatigue 4, % of patients” value [3]?
Answer: (4.16%)

Question: And the “change of fatigue 4, number of patients” value [3]?
Answer: 60

Question: What about the “change of fatigue 6, % of patients” value [3] of the same molecule?
Answer: (0.97%)

Question: And the “change of fatigue 6, number of patients” value [3]?
Answer: 14

Question: What about the “change of fatigue −2, % of patients” value [3] of the same molecule?
Answer: (4.85%)

Question: And the “change of fatigue −2, number of patients” value [3]?
Answer: 70

Question: What about the “change of fatigue −4, % of patients” value [3] of the same molecule?
Answer: (0.42%)

Question: And the “change of fatigue −4, number of patients” value [3]?
Answer: 6

Question: And the “change of fatigue −6, % of patients” value [3]?
Answer: (0.14%)

Question: And the “change of fatigue −6, number of patients” value [3]?
Answer: 2

Question: And the “change of pale complexion 0, number of patients” value [3]?
Answer: 1177

Question: What about the “change of pale complexion 0, percent of patients” value [3] of the same molecule?
Answer: (81.68%)

Question: What about the “change of pale complexion 1, number of patients” value [3] of the same molecule?
Answer: 217

Question: And the “change of pale complexion 1, percent of patients” value [3]?
Answer: (15.06%)

Question: And the “change of pale complexion −1, number of patients” value [3]?
Answer: 47

Question: And the “change of pale complexion −1, percent of patients” value [3]?
Answer: (3.26%)

Question: What about the “change of palpitation 0, number of patients” value [3] of the same molecule?
Answer: 943

Question: And the “change of palpitation 0, percent of patients” value [3]?
Answer: (65.35%)

Question: And the “change of palpitation 1, number of patients” value [3]?
Answer: 356

Question: And the “change of palpitation 1, percent of patients” value [3]?
Answer: (24.67%)

Question: And the “change of palpitation 2, number of patients” value [3]?
Answer: 39

Question: And the “change of palpitation 2, percent of patients” value [3]?
Answer: (2.70%)

Question: What about the “change of palpitation 3, number of patients” value [3] of the same molecule?
Answer: 5

Question: What about the “change of palpitation 3, percent of patients” value [3] of the same molecule?
Answer: (0.35%)

Question: What about the “change of palpitation −1, number of patients” value [3] of the same molecule?
Answer: 99

Question: What about the “change of palpitation −1, percent of patients” value [3] of the same molecule?
Answer: (6.86%)

Question: And the “change of palpitation −2, number of patients” value [3]?
Answer: 1

Question: What about the “change of palpitation −2, percent of patients” value [3] of the same molecule?
Answer: (0.07%)

Question: What about the “change of palpitation −3, number of patients” value [3] of the same molecule?
Answer: 0

Question: What about the “change of palpitation −3, percent of patients” value [3] of the same molecule?
Answer: (0.00%)

Question: And the “change of short breath 0, % of patients” value [3]?
Answer: (70.27%)

Question: What about the “change of short breath 0, number of patients” value [3] of the same molecule?
Answer: 1014

Question: What about the “change of short breath 2, % of patients” value [3] of the same molecule?
Answer: (21.41%)
